Holding throughout (format): in vivo
The test system of one assay is IL-6. Description: Rat serum IL-6 after carrageenan (ELISA). The text has this:
(§1) In this study, specializing ELISA kits were used to determine the concentration of inflammatory cytokines PGE2, IL-6, and TNF-α. The study’s findings were examined in accordance with the instructions provided by the manufacturer, and measurements were taken based on the optical density at 450 nm.
For orientation: An ELISA detects its analyte on a solid surface through an enzyme-linked reagent.

Another assay has as its system PGE2. Description: Rat serum PGE2 after carrageenan (ELISA). The settings on record: 4 hours after subcutaneous carrageenan.
Excerpt: Inhibiting PGE2 is a crucial strategy in anti-inflammatory therapy, playing a pivotal role in managing inflammation and its associated conditions.
as §1

For the next assay, the system named is TNF-α. The assay is described as follows: Rat serum TNF-α after carrageenan (ELISA).
Excerpt: as §1

The record followed here is PMC11117333, “Design and synthesis of new dihydropyrimidine/sulphonamide hybrids as promising anti-inflammatory agents via dual mPGES-1/5-LOX inhibition” (Frontiers in Chemistry, 2024).

The structures appear in SMILES notation. Marks after values point to notes of the source that are not given here.

Regarding `Cc1cnc(NC(=O)C2=C(O)c3ccccc3S(=O)(=O)N2C)s1` [Meloxicam, reference compound], in the assay with IL-6, the IL-6 %inhibition was 70%. The PGE2 %inhibition in the assay on PGE2 was 73%; with PGE2 (listed as meloxicam), 72.60%. In the assay with PGE2 (mean ± SE), the PGE2 serum concentration is 82.50 ± 2.58 ^b pg/mL. The same molecule returned a TNFα %inhibition with TNF-α of 62%. Further, the TNFα serum concentration in the assay on TNF-α (mean ± SE) was 88.50 ± 2.40^ab pg/mL.
